{"source": "patent US12662498B2", "about": "(priority 2017, dated 2026)", "test": "ICH stability study of psilocybin batches (appearance, water content, purity, assay)"}
{"smiles": "CN(C)CCc1c[nH]c2cccc(OP(=O)(O)O)c12", "note": "[Batch 170231]", "values": [{"measurement": "Impurities by HPLC: RRT 1.62 (Psilocin)", "setting": "T = 6 months, 2-8° C.", "result": 0.35, "unit": "%"}, {"measurement": "Impurities by HPLC: RRT 1.70", "setting": "T = 6 months, 2-8° C.", "result": "LT 0.05%"}, {"measurement": "Impurities by HPLC: line without printed RRT (after RRT0.69)", "setting": "T = 6 months, 2-8° C.", "result": 0.07, "unit": "%"}, {"measurement": "Impurity at RRT 1.89", "setting": "T = 6 months, 2-8° C.", "result": "LT 0.05%"}, {"measurement": "Impurity at RRT 2.45", "setting": "T = 6 months, 2-8° C.", "result": "LT 0.05%"}, {"measurement": "Total Impurities", "setting": "T = 6 months, 2-8° C.", "result": 0.80, "unit": "%"}, {"measurement": "Water content by loss on drying", "setting": "T = 6 months, 2-8° C.", "result": 0.06, "unit": "% ^w/w % w/w"}, {"measurement": "Appearance", "setting": "T = 6 months, 25° C./60% RH", "result": "An off white solid."}, {"measurement": "Assay by HPLC (on a dry basis)", "setting": "T = 6 months, 25° C./60% RH", "result": 98.04, "unit": "% ^w/w % w/w"}, {"measurement": "Chemical Purity By HPLC", "setting": "T = 6 months, 25° C./60% RH", "result": 99.19, "unit": "%"}, {"measurement": "Impurities LT 0.05%", "setting": "T = 6 months, 25° C./60% RH", "result": 0.34, "unit": "%"}, {"measurement": "Impurities by HPLC: RRT0.69", "setting": "T = 6 months, 25° C./60% RH", "result": 0.06, "unit": "%"}, {"measurement": "Impurities by HPLC: RRT 1.49", "setting": "T = 6 months, 25° C./60% RH", "result": "LT 0.05%"}, {"measurement": "Impurities by HPLC: RRT 1.62 (Psilocin)", "setting": "T = 6 months, 25° C./60% RH", "result": 0.34, "unit": "%"}, {"measurement": "Impurities by HPLC: RRT 1.70", "setting": "T = 6 months, 25° C./60% RH", "result": "LT 0.05%"}, {"measurement": "Impurities by HPLC: line without printed RRT (after RRT0.69)", "setting": "T = 6 months, 25° C./60% RH", "result": 0.07, "unit": "%"}, {"measurement": "Impurity at RRT 1.89", "setting": "T = 6 months, 25° C./60% RH", "result": "LT 0.05%"}, {"measurement": "Impurity at RRT 2.45", "setting": "T = 6 months, 25° C./60% RH", "result": "LT 0.05%"}, {"measurement": "Total Impurities", "setting": "T = 6 months, 25° C./60% RH", "result": 0.81, "unit": "%"}, {"measurement": "Water content by loss on drying", "setting": "T = 6 months, 25° C./60% RH", "result": 0.32, "unit": "% ^w/w % w/w"}, {"measurement": "Appearance", "setting": "T = 6 months, 40° C./75% RH", "result": "An off white solid."}, {"measurement": "Assay by HPLC (on a dry basis)", "setting": "T = 6 months, 40° C./75% RH", "result": 100.10, "unit": "% ^w/w % w/w"}, {"measurement": "Chemical Purity By HPLC", "setting": "T = 6 months, 40° C./75% RH", "result": 99.12, "unit": "%"}, {"measurement": "Impurities LT 0.05%", "setting": "T = 6 months, 40° C./75% RH", "result": 0.36, "unit": "%"}, {"measurement": "Impurities by HPLC: RRT0.69", "setting": "T = 6 months, 40° C./75% RH", "result": 0.06, "unit": "%"}, {"measurement": "Impurities by HPLC: RRT 1.49", "setting": "T = 6 months, 40° C./75% RH", "result": "LT 0.05%"}, {"measurement": "Impurities by HPLC: RRT 1.62 (Psilocin)", "setting": "T = 6 months, 40° C./75% RH", "result": 0.38, "unit": "%"}, {"measurement": "Impurities by HPLC: RRT 1.70", "setting": "T = 6 months, 40° C./75% RH", "result": "LT 0.05%"}, {"measurement": "Impurities by HPLC: line without printed RRT (after RRT0.69)", "setting": "T = 6 months, 40° C./75% RH", "result": 0.08, "unit": "%"}, {"measurement": "Impurity at RRT 1.89", "setting": "T = 6 months, 40° C./75% RH", "result": "LT 0.05%"}, {"measurement": "Impurity at RRT 2.45", "setting": "T = 6 months, 40° C./75% RH", "result": "LT 0.05%"}, {"measurement": "Total Impurities", "setting": "T = 6 months, 40° C./75% RH", "result": 0.88, "unit": "%"}, {"measurement": "Water content by loss on drying", "setting": "T = 6 months, 40° C./75% RH", "result": 2.26, "unit": "% ^w/w % w/w"}, {"measurement": "Appearance", "setting": "T = 9 months, 2-8° C.", "result": "An off white solid."}, {"measurement": "Assay by HPLC (on a dry basis)", "setting": "T = 9 months, 2-8° C.", "result": 97.53, "unit": "% ^w/w % w/w"}, {"measurement": "Chemical Purity By HPLC", "setting": "T = 9 months, 2-8° C.", "result": 99.16, "unit": "%"}, {"measurement": "Impurities by HPLC: RRT0.69", "setting": "T = 9 months, 2-8° C.", "result": "LT 0.05%"}, {"measurement": "Impurities by HPLC: RRT 1.49", "setting": "T = 9 months, 2-8° C.", "result": 0.07, "unit": "%"}, {"measurement": "Impurities by HPLC: RRT 1.62 (Psilocin)", "setting": "T = 9 months, 2-8° C.", "result": 0.06, "unit": "%"}, {"measurement": "Impurities by HPLC: RRT 1.70", "setting": "T = 9 months, 2-8° C.", "result": 0.37, "unit": "%"}, {"measurement": "Impurities by HPLC: line without printed RRT (after RRT0.69)", "setting": "T = 9 months, 2-8° C.", "result": "LT 0.05%"}, {"measurement": "Impurity at RRT 1.89", "setting": "T = 9 months, 2-8° C.", "result": "LT 0.05%"}, {"measurement": "Impurity at RRT 2.45", "setting": "T = 9 months, 2-8° C.", "result": "LT 0.05%"}, {"measurement": "Total Impurities", "setting": "T = 9 months, 2-8° C.", "result": 0.84, "unit": "%"}, {"measurement": "Water content by loss on drying", "setting": "T = 9 months, 2-8° C.", "result": 0.21, "unit": "% ^w/w % w/w"}, {"measurement": "Appearance", "setting": "T = 9 months, 25° C./60% RH", "result": "An off white solid."}, {"measurement": "Assay by HPLC (on a dry basis)", "setting": "T = 9 months, 25° C./60% RH", "result": 98.12, "unit": "% ^w/w % w/w"}, {"measurement": "Chemical Purity By HPLC", "setting": "T = 9 months, 25° C./60% RH", "result": 99.16, "unit": "%"}, {"measurement": "Impurities by HPLC: RRT0.69", "setting": "T = 9 months, 25° C./60% RH", "result": "LT 0.05%"}, {"measurement": "Impurities by HPLC: RRT 1.49", "setting": "T = 9 months, 25° C./60% RH", "result": 0.05, "unit": "%"}, {"measurement": "Impurities by HPLC: RRT 1.62 (Psilocin)", "setting": "T = 9 months, 25° C./60% RH", "result": 0.06, "unit": "%"}, {"measurement": "Impurities by HPLC: RRT 1.70", "setting": "T = 9 months, 25° C./60% RH", "result": 0.37, "unit": "%"}, {"measurement": "Impurities by HPLC: line without printed RRT (after RRT0.69)", "setting": "T = 9 months, 25° C./60% RH", "result": "LT 0.05%"}, {"measurement": "Impurity at RRT 1.89", "setting": "T = 9 months, 25° C./60% RH", "result": "LT 0.05%"}, {"measurement": "Impurity at RRT 2.45", "setting": "T = 9 months, 25° C./60% RH", "result": "LT 0.05%"}, {"measurement": "Total Impurities", "setting": "T = 9 months, 25° C./60% RH", "result": 0.84, "unit": "%"}, {"measurement": "Water content by loss on drying", "setting": "T = 9 months, 25° C./60% RH", "result": 0.10, "unit": "% ^w/w % w/w"}, {"measurement": "Appearance", "setting": "T = 12 months, 2-8° C.", "result": "An off white solid."}, {"measurement": "Assay by HPLC (on a dry basis)", "setting": "T = 12 months, 2-8° C.", "result": 99.63, "unit": "% ^w/w % w/w"}, {"measurement": "Chemical Purity By HPLC", "setting": "T = 12 months, 2-8° C.", "result": 99.25, "unit": "%"}, {"measurement": "Impurities LT 0.05%", "setting": "T = 12 months, 2-8° C.", "result": 0.38, "unit": "%"}, {"measurement": "Impurities by HPLC: RRT0.69", "setting": "T = 12 months, 2-8° C.", "result": "LT 0.05%"}, {"measurement": "Impurities by HPLC: RRT 1.49", "setting": "T = 12 months, 2-8° C.", "result": "LT 0.05%"}, {"measurement": "Impurities by HPLC: RRT 1.62 (Psilocin)", "setting": "T = 12 months, 2-8° C.", "result": 0.37, "unit": "%"}, {"measurement": "Impurities by HPLC: RRT 1.70", "setting": "T = 12 months, 2-8° C.", "result": "LT 0.05%"}, {"measurement": "Impurity at RRT 1.89", "setting": "T = 12 months, 2-8° C.", "result": "LT 0.05%"}, {"measurement": "Impurity at RRT 2.45", "setting": "T = 12 months, 2-8° C.", "result": "LT 0.05%"}, {"measurement": "Total Impurities", "setting": "T = 12 months, 2-8° C.", "result": 0.75, "unit": "%"}, {"measurement": "Water content by loss on drying", "setting": "T = 12 months, 2-8° C.", "result": 0.49, "unit": "% ^w/w % w/w"}, {"measurement": "Appearance", "setting": "T = 12 months, 25° C./60% RH", "result": "An off white solid."}, {"measurement": "Assay by HPLC (on a dry basis)", "setting": "T = 12 months, 25° C./60% RH", "result": 98.97, "unit": "% ^w/w % w/w"}, {"measurement": "Chemical Purity By HPLC", "setting": "T = 12 months, 25° C./60% RH", "result": 99.25, "unit": "%"}, {"measurement": "Impurities LT 0.05%", "setting": "T = 12 months, 25° C./60% RH", "result": 0.38, "unit": "%"}, {"measurement": "Impurities by HPLC: RRT0.69", "setting": "T = 12 months, 25° C./60% RH", "result": "LT 0.05%"}, {"measurement": "Impurities by HPLC: RRT 1.49", "setting": "T = 12 months, 25° C./60% RH", "result": "LT 0.05%"}, {"measurement": "Impurities by HPLC: RRT 1.62 (Psilocin)", "setting": "T = 12 months, 25° C./60% RH", "result": 0.37, "unit": "%"}, {"measurement": "Impurities by HPLC: RRT 1.70", "setting": "T = 12 months, 25° C./60% RH", "result": "LT 0.05%"}, {"measurement": "Impurity at RRT 2.45", "setting": "T = 12 months, 25° C./60% RH", "result": "LT 0.05%"}, {"measurement": "Total Impurities", "setting": "T = 12 months, 25° C./60% RH", "result": 0.75, "unit": "%"}, {"measurement": "Water content by loss on drying", "setting": "T = 12 months, 25° C./60% RH", "result": 0.61, "unit": "% ^w/w % w/w"}]}
